Results on 3 compounds are retold here after US20090299034A1, “Collagen-related peptides” (priority 2007, published 2009).

Test [1] has as its system washed platelets. Kind of test: Inhibition of platelet aggregation induced by collagen or CRP trimer SEQ ID 145. In kind it is cell-based, human. The following applies: GPIIb/IIIa antagonist at 10, 100 and 1000 nM, 5 min pre-incubation.
The test system of test [2] is washed platelets. Kind of test: Human platelet aggregation assay. In kind it is cell-based. The conditions noted are these: for EC50 ± SEM platelet aggregation: Table 3. As for the experimental part:
Human platelet-rich plasma (PRP) concentrate from healthy volunteers was purchased from Biological Specialties, Inc. (Colmar, Pa.). […] The PRP was centrifuged at 730 g for 15 min. The resulting platelet pellet was washed twice in CGS buffer (13 mM sodium citrate, 30 mM glucose, 120 mM NaCl, pH 6.5) containing 1 U/mL apyrase (grade V, Sigma-Aldrich) and resuspended in Tyrode's buffer (140 mM NaCl, 2.7 mM KCl, 12 mM NaHCO3, 0.76 mM Na2HPO4, 5.5 mM dextrose, 5.0 mM Hepes, 0.2% BSA, pH 7.4). The “washed” platelets were diluted to 3×10^8 platelets/mL and kept >45 min at 37° C. before use.
For the assay, 105 μL of washed platelets, 2 mM CaCl2 and […] of fibrinogen were added to a 96-well microtiter plate. Platelet aggregation was initiated by the addition of serial concentrations of native collagen fibrils (equine type I; 92% identity with human collagen sequence; Chrono-log Corp., Havertown, Pa.) or test peptides. Buffer was added to one set of control wells. The assay plate was stirred constantly and intermittently placed in a microplate reader (Softmax, Molecular Devices, Menlo Park, Calif.) to read optical density (650 nm) at 0 and 5 min after the addition of the compound solutions. Aggregation was calculated as the decrease in optical density between the time-0 and 5-min measurements and expressed as percent of aggregation.
Peptides were dissolved in PBS (pH 7) or water (final pH 5) to a concentration of 2 mg/mL. Some samples were heated in a water bath (70° C.) for 10 min, filtered through a 0.45-μm filter and incubated for 24 h or 7 days at 4° C. […] (H+F) and re-annealed at 4° C.

As for `O=C(O)C[C@H](NC(=O)[C@@H]1CCCN(C(=O)CCC2CCNCC2)C1)c1cccnc1` [elarofiban], in the test on washed platelets [1], the “inhibition of platelet aggregation induced by CRP trimer having SEQ ID 145” value was “dose-dependent inhibition” and the “inhibition of platelet aggregation induced by collagen” value was “dose-dependent inhibition”.

Take (Pro-Xaa-Gly)10 [SEQ ID 154]: the “induction of platelet aggregation” value in the test on washed platelets [2] (Example 4) is recorded as “failed to aggregate platelets”. Moreover, the “stimulation of platelet aggregation” value in the test with washed platelets [2] (Example 6, FIG. 1) is “not effective”. The “EC50 ± SEM platelet aggregation” value in the test on washed platelets [2] (PBS, H + F, pH 7, incubation 24 h) was “Not Active”.

Take Collagen: in the test on washed platelets [2] (Example 6, FIG. 1, Table 4), the “EC50 values (±SEM) platelet aggregation” value amounted to 0.56 ± 0.09 µg/mL. Besides, the “EC50 ± SEM platelet aggregation” value with washed platelets [2] (native collagen fibrils, no peptide preparation) stood at 0.25 µg/mL.
